Consider six compounds from ChEMBL document CHEMBL1150336, “Synthesis and antibacterial activity of novel pyrido[1,2,3-de][1,4]benzoxazine-6-carboxylic acid derivatives carrying the 3-cyclopropylaminomethyl-4-substituted-1-pyrrolidinyl group as a C-10 substituent” (J Med Chem, 2008).

≈ marks a conversion by molar mass, not a printed value.

The test system of one data set is Escherichia coli. Put plainly: Antibacterial activity against Escherichia coli NIHJ JC2 after 18 hrs by agar dilution method. It is filed as functional. Conditions: NIHJ JC2, 18 h. A general note: Agar dilution tests growth on a series of plates holding different concentrations.
In data set [1] the test system is Enterococcus faecalis. The data set can be described thus: Antibacterial activity against Enterococcus faecalis IID682 after 18 hrs by agar dilution method. It is filed as functional.
The next data set has as its system Streptococcus pyogenes. The data set can be described thus: Antibacterial activity against Streptococcus pyogenes IID692 after 18 hrs by agar dilution method. The format is functional.
Data set [2] relates to Staphylococcus aureus. Put plainly: Antibacterial activity against Staphylococcus aureus Smith after 18 hrs by agar dilution method. The format is functional.
Data set [3] relates to Streptococcus pneumoniae. Put plainly: Antibacterial activity against Streptococcus pneumoniae type 3 after 18 hrs by agar dilution method. The format is functional.
The next data set has as its system Pseudomonas aeruginosa. The data set can be described thus: Antibacterial activity against Pseudomonas aeruginosa IID1210 after 18 hrs by agar dilution method. The format is functional.
Data set [4] deals with Staphylococcus aureus. Put plainly: Antibacterial activity against quinoline-resistant Staphylococcus aureus OITI MR1-1002 isolate after 18 hrs by agar dilution method. It is filed as functional.
In data set [5] the test system is Streptococcus pneumoniae. The data set can be described thus: Antibacterial activity against quinoline-resistant Streptococcus pneumoniae no.55 isolate after 18 hrs by agar dilution method. The format is functional.
Data set [6] concerns Enterococcus faecalis. Put plainly: Antibacterial activity against quinoline-resistant Enterococcus faecalis No.15 isolate after 18 hrs by agar dilution method. The format is functional.
Data set [7] deals with Enterococcus faecalis. The data set can be described thus: Antibacterial activity against vancomycin-resistant Enterococcus faecalis KU1856 after 18 hrs by agar dilution method. The format is functional.
Data set [8] concerns Enterococcus faecalis. Put plainly: Antibacterial activity against vancomycin-resistant Enterococcus faecalis KU1866 after 18 hrs by agar dilution method. The format is functional.
The subject of another data set is Klebsiella pneumoniae. The data set can be described thus: Antibacterial activity against Klebsiella pneumoniae IID5209 after 18 hrs by agar dilution method. It is filed as functional.
The test system of the next data set is Haemophilus influenzae. Put plainly: Antibacterial activity against Haemophilus influenzae IID983 after 18 hrs by agar dilution method. It is filed as functional.
The subject of data set [9] is Mus musculus. Put plainly: Toxicity in ICR mouse assessed as mortality administered as single dose at 100 mg/kg, iv after 7 days. It is filed as organism-based. Conditions: in vivo, 168 h. Set-up: dose 100 mg/kg, route intravenous.
For data set [10], the system named is Mus musculus. The data set can be described thus: Toxicity in intracerebroventricularly dosed ICR mouse assessed as induction of convulsion after 2 hrs in absence of fenbufen. Conditions: in vivo, icv_or_intrathecal. It is filed as organism-based.
In data set [11] the test system is Mus musculus. Put plainly: Toxicity in intracerebroventricularly dosed ICR mouse assessed as induction of convulsion after 2 hrs in presence of fenbufen. The format is organism-based. Conditions: in vivo, icv_or_intrathecal.
Data set [12] relates to Mus musculus. Put plainly: Phototoxicity in orally dosed ICR mouse assessed as skin erythema after 72 hrs. Particulars: in vivo, po. The format is organism-based.
The test system of data set [13] is Mus musculus. Put plainly: Toxicity in ICR mouse assessed as mortality administered as single dose at 200 mg/kg, iv after 7 days. The format is organism-based. Set-up: dose 200 mg/kg, route intravenous. Conditions: in vivo, 168 h.

On to `CCNCC1CCN(c2c(F)cc3c(=O)c(C(=O)O)cn4c3c2OC[C@@H]4C)C1` (stereo not given in full), for which the MIC with Escherichia coli turned out to be 0.031 µg/mL (≈ 0.0796 µM); in the data set with Enterococcus faecalis [1], 0.25 µg/mL (≈ 0.642 µM); in the data set on Streptococcus pyogenes, 0.063 µg/mL (≈ 0.162 µM); with Staphylococcus aureus [2], 125 ng/mL (≈ 0.321 µM); in the data set with Streptococcus pneumoniae [3] it was 0.063 µg/mL (≈ 0.162 µM); with Pseudomonas aeruginosa, 4 µg/mL (≈ 10.3 µM). For the same compound, the MIC with Staphylococcus aureus [4] stood at 32 µg/mL (≈ 82.2 µM); with Streptococcus pneumoniae [5], 2 µg/mL (≈ 5.14 µM); in the data set with Enterococcus faecalis [6], 32 µg/mL (≈ 82.2 µM); against Enterococcus faecalis [7] it was 16 µg/mL (≈ 41.1 µM); in the data set with Enterococcus faecalis [8] it was 16 µg/mL (≈ 41.1 µM).

In the case of `C[C@H]1CN(c2c(F)cc3c(=O)c(C(=O)O)cn4c3c2OC[C@@H]4CF)C[C@@H]1CNC1CC1`, the MIC was determined as 0.125 µg/mL (≈ 0.288 µM) in the data set with Klebsiella pneumoniae; 0.016 µg/mL (≈ 0.0369 µM) against Escherichia coli; 0.063 µg/mL (≈ 0.145 µM) against Enterococcus faecalis [1]; 0.031 µg/mL (≈ 0.0715 µM) in the data set with Streptococcus pyogenes; 8 ng/mL (≈ 0.0185 µM) in the data set with Staphylococcus aureus [2]; 8 ng/mL (≈ 0.0185 µM) with Haemophilus influenzae. For the same compound, the MIC in the data set with Streptococcus pneumoniae [3] turned out to be 0.031 µg/mL (≈ 0.0715 µM); against Pseudomonas aeruginosa it was 4 µg/mL (≈ 9.23 µM); with Staphylococcus aureus [4], 2 µg/mL (≈ 4.61 µM); against Streptococcus pneumoniae [5], 0.5 µg/mL (≈ 1.15 µM); against Enterococcus faecalis [6] it was 1 µg/mL (≈ 2.31 µM); in the data set with Enterococcus faecalis [7], 1 µg/mL (≈ 2.31 µM). In the data set on Enterococcus faecalis [8], the MIC came out at 1 µg/mL (≈ 2.31 µM). In addition, the Activity entry with Mus musculus [9] is “Non-toxic”; in the data set on Mus musculus [10], 40 µg; with Mus musculus [11], 20 µg; in the data set with Mus musculus [12], “Non-toxic”.

Turning to `C[C@H]1COc2c(N3C[C@H](CNC4CC4)[C@H](F)C3)c(F)cc3c(=O)c(C(=O)O)cn1c23`, the MIC came out at 0.031 µg/mL (≈ 0.0739 µM) against Klebsiella pneumoniae; 0.008 µg/mL (≈ 0.0191 µM) in the data set with Escherichia coli; 0.063 µg/mL (≈ 0.15 µM) in the data set with Enterococcus faecalis [1]; 0.031 µg/mL (≈ 0.0739 µM) against Streptococcus pyogenes; 8 ng/mL (≈ 0.0191 µM) against Staphylococcus aureus [2]; 4 ng/mL (≈ 0.00954 µM) with Haemophilus influenzae. Further, the MIC against Streptococcus pneumoniae [3] was 0.016 µg/mL (≈ 0.0381 µM); with Pseudomonas aeruginosa, 2 µg/mL (≈ 4.77 µM); with Staphylococcus aureus [4], 1 µg/mL (≈ 2.38 µM); against Streptococcus pneumoniae [5], 0.125 µg/mL (≈ 0.298 µM); in the data set with Enterococcus faecalis [6], 0.5 µg/mL (≈ 1.19 µM); against Enterococcus faecalis [7], 0.5 µg/mL (≈ 1.19 µM). The compound also gave an MIC with Enterococcus faecalis [8] of 0.5 µg/mL (≈ 1.19 µM). Besides, the Activity entry is “Non-toxic” in the data set with Mus musculus [9], “Non-toxic” in the data set with Mus musculus [13], more than 40 µg with Mus musculus [10] and more than 40 µg in the data set with Mus musculus [11].

As for `O=C(O)c1cn2c3c(c(N4CC[C@@H](CNC5CC5)C4)c(F)cc3c1=O)OC[C@@H]2CF`, the MIC against Klebsiella pneumoniae came to 0.031 µg/mL (≈ 0.0739 µM); with Escherichia coli it was 0.004 µg/mL (≈ 0.00954 µM); in the data set with Enterococcus faecalis [1], 0.063 µg/mL (≈ 0.15 µM); in the data set on Streptococcus pyogenes it was 0.031 µg/mL (≈ 0.0739 µM); with Staphylococcus aureus [2], 8 ng/mL (≈ 0.0191 µM); with Haemophilus influenzae, 4 ng/mL (≈ 0.00954 µM). The MIC against Streptococcus pneumoniae [3] was 0.016 µg/mL (≈ 0.0381 µM); in the data set with Pseudomonas aeruginosa, 2 µg/mL (≈ 4.77 µM); against Staphylococcus aureus [4] it was 2 µg/mL (≈ 4.77 µM); in the data set with Streptococcus pneumoniae [5] it was 0.25 µg/mL (≈ 0.596 µM); with Enterococcus faecalis [6] it was 1 µg/mL (≈ 2.38 µM); against Enterococcus faecalis [7], 0.5 µg/mL (≈ 1.19 µM). In addition, in the data set on Enterococcus faecalis [8], the MIC came out at 0.5 µg/mL (≈ 1.19 µM). Further, the Activity result in the data set on Mus musculus [9] was “Non-toxic”; with Mus musculus [10] it was 10 µg; in the data set on Mus musculus [11], 10 µg; in the data set with Mus musculus [12], “Non-toxic”.

With `C[C@@H]1CN(c2c(F)cc3c(=O)c(C(=O)O)cn4c3c2OC[C@@H]4C)C[C@@H]1CNC1CC1`, the MIC against Klebsiella pneumoniae came out at 0.063 µg/mL (≈ 0.152 µM); in the data set with Escherichia coli, 0.016 µg/mL (≈ 0.0385 µM); in the data set with Enterococcus faecalis [1], 0.063 µg/mL (≈ 0.152 µM); in the data set on Streptococcus pyogenes it was 0.016 µg/mL (≈ 0.0385 µM); in the data set on Staphylococcus aureus [2], 8 ng/mL (≈ 0.0193 µM); in the data set with Haemophilus influenzae, 4 ng/mL (≈ 0.00963 µM). The MIC against Streptococcus pneumoniae [3] amounted to 0.016 µg/mL (≈ 0.0385 µM); against Pseudomonas aeruginosa it was 2 µg/mL (≈ 4.81 µM); in the data set with Staphylococcus aureus [4] it was 0.5 µg/mL (≈ 1.2 µM); in the data set with Streptococcus pneumoniae [5], 0.125 µg/mL (≈ 0.301 µM); against Enterococcus faecalis [6], 1 µg/mL (≈ 2.41 µM); with Enterococcus faecalis [7] it was 1 µg/mL (≈ 2.41 µM). This compound also showed an MIC against Enterococcus faecalis [8] of 1 µg/mL (≈ 2.41 µM). Also, the Activity entry was “Toxic” with Mus musculus [9], more than 40 µg in the data set on Mus musculus [10] and more than 40 µg with Mus musculus [11].

As to `C[C@H]1COc2c(N3CC[C@@H](CNC4CC4)C3)c(F)cc3c(=O)c(C(=O)O)cn1c23`, the MIC with Klebsiella pneumoniae stood at 0.063 µg/mL (≈ 0.157 µM); with Escherichia coli it was 0.008 µg/mL (≈ 0.0199 µM); against Enterococcus faecalis [1] it was 0.063 µg/mL (≈ 0.157 µM); with Streptococcus pyogenes, 0.016 µg/mL (≈ 0.0399 µM); in the data set on Staphylococcus aureus [2], 8 ng/mL (≈ 0.0199 µM); with Haemophilus influenzae it was 16 ng/mL (≈ 0.0399 µM). Besides, the MIC amounted to 0.016 µg/mL (≈ 0.0399 µM) against Streptococcus pneumoniae [3]; 2 µg/mL (≈ 4.98 µM) against Pseudomonas aeruginosa; 2 µg/mL (≈ 4.98 µM) with Staphylococcus aureus [4]; 0.25 µg/mL (≈ 0.623 µM) in the data set on Streptococcus pneumoniae [5]; 1 µg/mL (≈ 2.49 µM) against Enterococcus faecalis [6]; 0.5 µg/mL (≈ 1.25 µM) in the data set on Enterococcus faecalis [7]. The compound further had an MIC against Enterococcus faecalis [8] of 0.5 µg/mL (≈ 1.25 µM). In addition, the Activity entry in the data set on Mus musculus [9] was “Non-toxic”; with Mus musculus [13], “Toxic”; in the data set on Mus musculus [10], 20 µg; in the data set on Mus musculus [11] it was 20 µg.
